For series [1], the species on record is Bos taurus. The series can be described thus: Inhibition of calf thymus DNA topoisomerase 1-mediated relaxation of supercoiled DNA pBR322 assessed as appearance of short DNA fragment at 1 to 50 uM after 15 mins by agarose gel electrophoresis.
The subject of series [2] is A549. The series can be described thus: Antiproliferative activity against human A549 cells after 3 days by MTT assay. The series is classed as functional, cell-based. The settings on record: A549, 72 h. For orientation: Tetrazolium assays rely on reduction of a dye to a coloured formazan, in cell work by metabolically active cells.
The species named for series [3] is Bos taurus. The series is described as follows: Inhibition of calf thymus DNA topoisomerase 1-mediated relaxation of supercoiled DNA pBR322 assessed as appearance of short DNA fragment at 100 uM after 15 mins by agarose gel electrophoresis.
For series [4], the system named is MDA-MB-435. The series is described as follows: Antiproliferative activity against human MDA-MB-435 cells after 3 days by MTT assay. The series is classed as functional, cell-based. The settings on record: MDA-MB-435, 72 h.
Series [5] relates to HCT-116. The series can be described thus: Antiproliferative activity against human HCT116 cells after 3 days by MTT assay. The series is classed as functional, cell-based. The settings on record: HCT-116, 72 h.
Series [6] is filed under the species Bos taurus. The series can be described thus: Inhibition of calf thymus DNA topoisomerase 1-mediated relaxation of supercoiled DNA pBR322 assessed as appearance of short DNA fragment after 15 mins by agarose gel electrophoresis.
Series [7] deals with Mus musculus. The series is described as follows: Toxicity in human A549 cells xenografted in BALB/c mouse assessed as reduction in body weight at 0.5 mg/kg, iv qd for 5 days measured after 14 days. The series is classed as organism-based. To be noted: in vivo, 336 h. Also on record: dose 0.5 mg/kg, route intravenous. For orientation: A xenograft is tissue or cells of one species grown in another, often human tumour cells in immunodeficient mice.

The test system of series [8] is Mus musculus. The series is described as follows: Toxicity in human A549 cells xenografted in BALB/c mouse assessed as mortality at 0.5 mg/kg, iv qd for 5 days measured after 14 days. Details: dose 0.5 mg/kg, route intravenous. It is filed as organism-based. The settings on record: in vivo, 336 h.
In series [9] the test system is A549. The series can be described thus: Antitumor activity against human A549 cells xenografted in BALB/c mouse assessed as decrease in tumor weight at 0.5 mg/kg, iv qd for 5 days measured after 14 days relative to control. The series is classed as functional. To be noted: read-out: TGI.
The test system of series [10] is A549. The series can be described thus: Antitumor activity against human A549 cells xenografted in BALB/c mouse assessed as decrease in tumor weight at 2 mg/kg, ip qd for 5 days measured after 14 days relative to control. The settings on record: route intraperitoneal, read-out: TGI. The series is classed as functional.
In series [11] the test system is Mus musculus. The series can be described thus: Toxicity in human A549 cells xenografted in BALB/c mouse assessed as gross abnormalities at 2 mg/kg, ip qd for 5 days measured after 14 days by necropsy analysis. Also on record: dose 2 mg/kg, route intraperitoneal. To be noted: in vivo, 336 h. The series is classed as organism-based.
In series [12] the test system is Mus musculus. The series is described as follows: Toxicity in human A549 cells xenografted in BALB/c mouse assessed as reduction in body weight at 2 mg/kg, ip qd for 5 days measured after 14 days. It is filed as organism-based. Details: dose 2 mg/kg, route intraperitoneal. The settings on record: in vivo, 336 h.
The subject of series [13] is Mus musculus. The series is described as follows: Toxicity in human A549 cells xenografted in BALB/c mouse assessed as mortality at 2 mg/kg, ip qd for 5 days measured after 14 days. To be noted: in vivo, 336 h. Also on record: dose 2 mg/kg, route intraperitoneal. It is filed as organism-based.
In series [14] the test system is ZR-75-30. The series can be described thus: Antiproliferative activity against human ZR75-30 cells after 3 days by MTT assay. The series is classed as functional, cell-based. To be noted: ZR-75-30, 72 h.
The test system of series [15] is A549. The series is described as follows: Induction of apoptosis in human A549 cells assessed as morphological change at 5 uM after 48 hrs by phase contrast microscopy analysis. It is filed as functional, cell-based.
The test system of series [16] is MRC5. The series is described as follows: Antiproliferative activity against human MRC5 cells after 3 days by MTT assay. The series is classed as cell-based. To be noted: mrc5, 72 h.
Series [17] relates to A549. The series can be described thus: Induction of apoptosis in human A549 cells at 5 uM after 48 hrs by annexinV and propidium iodide dual stain based flow cytometry analysis relative to control. It is filed as functional.

Activity calls are given as the source filed them. The rule behind the calls is not given here.

A word on the IC50: it is the concentration needed to halve the response being measured. For the compound `CCOCCO[C@@H]1OCc2c(cc3n(c2=O)Cc2cc4cc(OC)ccc4nc2-3)[C@@]1(O)CC`, in series [1], the inhibition entry was “inactive”. Further, the half-maximal inhibitory concentration (IC50) in series [2] was 838 nM; in [4] it was 210 nM; in series [5], 1 nM. The inhibition entry in series [3] is “Active”.
As to `CC[C@@]1(O)C(=O)OCc2c1cc1n(c2=O)Cc2cc3ccccc3nc2-1` [CAMPTOTHECIN], the figures for the half-maximal inhibitory concentration (IC50) in [2], in [4] and in series [5] were 2610 nM, 43.6 nM and 110 nM, respectively. The inhibition entry in series [6] is “Dose-dependent effect”.
For `CCOCCO[C@@H]1OCc2c(cc3n(c2=O)Cc2cc4c([N+](=O)[O-])cccc4nc2-3)[C@@]1(O)CC`, the half-inhibitory concentration (IC50) in series [2] was determined as 5690 nM; in series [4], 1080 nM; in series [5], 56.9 nM.
On to `CC[C@]1(O)c2cc3n(c(=O)c2CO[C@H]1OC)Cc1cc2ccccc2nc1-3`, for which the IC50 turned out to be 420 nM in series [2], 3670 nM in [4] and 532 nM in series [5]. Besides, the inhibition entry in series [3] was “Active”.
For the compound `CC[C@]1(O)c2cc3n(c(=O)c2CO[C@H]1OC(C)COC)Cc1cc2ccccc2nc1-3` (stereo partly drawn), the results for the concentration for half-maximal inhibition (IC50) in series [2], in [4] and in [5] were 8380 nM, 2740 nM and 117 nM, respectively.
Consider `CC[C@@]1(O)C(=O)OCc2c1cc1n(c2=O)Cc2cc3c(CN(C)C)c(O)ccc3nc2-1` [TOPOTECAN], for which the Activity in series [7] is listed as 15.15 g; in series [8], “Non-toxic”. For the same compound, the 50% inhibitory concentration (IC50) in series [2] was determined as 2800 nM; in series [4], 917 nM; in series [5] it was 88.9 nM. Moreover, in series [9], the inhibition in vivo at 0.5 mg/kg is 57.5%.
Turning to `CC[C@]1(O)c2cc3n(c(=O)c2CO[C@H]1OCC(F)(F)F)Cc1cc2ccccc2nc1-3`, the IC50 stood at 5970 nM in series [2], 2300 nM in [4] and 309 nM in series [5]. In addition, the inhibition entry in series [3] is “Active”.
In the case of `CC[C@]1(O)c2cc3n(c(=O)c2CO[C@H]1OC(=O)CCC(=O)O)Cc1cc2ccccc2nc1-3`, the IC50 worked out at 308 nM in [2], 1320 nM in series [4] and 264 nM in series [5].
The matching figures for `CC[C@]1(O)c2cc3n(c(=O)c2CO[C@H]1OCC(F)(F)C(F)(F)F)Cc1cc2ccccc2nc1-3`: 302 nM, 606 nM and 73 nM.
The matching figures for `CCOCC(C)O[C@@H]1OCc2c(cc3n(c2=O)Cc2cc4ccccc4nc2-3)[C@@]1(O)CC` (stereo partly drawn): 7400 nM, 2520 nM and 236 nM.
`CCC(C)O[C@@H]1OCc2c(cc3n(c2=O)Cc2cc4ccccc4nc2-3)[C@@]1(O)CC` (stereo partly drawn): the IC50 in series [2], in series [4] and in series [5] was more than 100000 nM each time.
Consider `CC[C@]1(O)c2cc3n(c(=O)c2CO[C@H]1OCC(C)C)Cc1cc2ccccc2nc1-3`, for which the IC50 in series [2] turned out to be 394 nM; in series [4], 7900 nM; in series [5], 210 nM.
With `CCCCO[C@@H]1OCc2c(cc3n(c2=O)Cc2cc4ccccc4nc2-3)[C@@]1(O)CC`, the IC50 was more than 100000 nM in series [2], more than 100000 nM in series [4] and 95100 nM in [5]. Moreover, in series [3], the inhibition result is “Active”.
Take `CCOCCO[C@@H]1OCc2c(cc3n(c2=O)Cc2cc4ccccc4nc2-3)[C@@]1(O)CC`: the IC50 amounted to 2580 nM in series [2], 469 nM in series [4] and 90.2 nM in series [5]. The inhibition in vivo at 2 mg/kg in [10] amounted to 35%. The figures for the Activity result in [11], in series [12] and in [13] were “Non-toxic”, 20.98 g and “Non-toxic”, respectively. In addition, in series [3], the inhibition entry was “Active”.
`CC[C@]1(O)c2cc3n(c(=O)c2CO[C@@H]1OC)Cc1cc2ccccc2nc1-3`: the IC50 in series [2] is 8800 nM; in [4], 56400 nM; in series [5] it was 8170 nM.
On to `CC[C@]1(O)c2cc3n(c(=O)c2CO[C@H]1OCCOC)Cc1cc2ccccc2nc1-3`, for which the concentration for half-maximal inhibition (IC50) turned out to be 5190 nM in series [2], 4920 nM in series [4] and 333 nM in [5]. Further, the inhibition entry in series [3] is “Active”.
The corresponding values for `CC[C@]1(O)c2cc3n(c(=O)c2CO[C@H]1OCCF)Cc1cc2ccccc2nc1-3` are 6310 nM, 1330 nM, 249 nM and “Active”.
For the compound `CCCCc1c2c(nc3ccccc13)-c1cc3c(c(=O)n1C2)CO[C@@H](OCCOCC)[C@]3(O)CC`, in [1], the inhibition result is “inactive”. For the same compound, the IC50 in [14] was 122 nM; in series [2], 598 nM; in series [4] it was 223 nM; in series [5], 1 nM. Besides, the inhibition in vivo at 2 mg/kg in [10] stood at 27%. Further, the outcome in series [15] was Active. For the same compound, the Activity entry in series [11] is reported as “Non-toxic”; in [16] it was “Non-toxic”; in series [12] it was 21.09 g; in [13] it was “Non-toxic”; in series [17] it was 0.5%. Further, in [3], the inhibition entry is “Active”.
Take `CCO[C@@H]1OCc2c(cc3n(c2=O)Cc2cc4ccccc4nc2-3)[C@@]1(O)CC`: the IC50 was 322 nM in series [2], 6250 nM in series [4] and 406 nM in series [5]. For the same compound, the inhibition entry in [3] is “Active”.
For `CCCO[C@@H]1OCc2c(cc3n(c2=O)Cc2cc4ccccc4nc2-3)[C@@]1(O)CC`, the concentration for half-maximal inhibition (IC50) stood at 323 nM in series [2], 12700 nM in series [4] and 517 nM in [5].
The matching figures for `CCCCCO[C@@H]1OCc2c(cc3n(c2=O)Cc2cc4ccccc4nc2-3)[C@@]1(O)CC`: 678 nM, 10600 nM and 127 nM.
For `CC[C@]1(O)c2cc3n(c(=O)c2CO[C@H]1OC(C)C)Cc1cc2ccccc2nc1-3`, the concentration for half-maximal inhibition (IC50) in series [2] is more than 100000 nM; in [4], more than 100000 nM; in series [5], 11500 nM.

The values above are taken from ChEMBL document CHEMBL2086342, “Synthesis and preliminary bioevaluation of novel E-ring modified acetal analog of camptothecin as cytotoxic agents” (Eur J Med Chem, 2012).
